The record followed here is ChEMBL document CHEMBL1132092, “Structure-activity relationship at the proximal phenyl group in a series of non-peptidyl N-type calcium channel antagonists” (Bioorg Med Chem Lett, 1999).

Sequence of Voltage-dependent N-type calcium channel subunit alpha-1B (Q00975 whole entry): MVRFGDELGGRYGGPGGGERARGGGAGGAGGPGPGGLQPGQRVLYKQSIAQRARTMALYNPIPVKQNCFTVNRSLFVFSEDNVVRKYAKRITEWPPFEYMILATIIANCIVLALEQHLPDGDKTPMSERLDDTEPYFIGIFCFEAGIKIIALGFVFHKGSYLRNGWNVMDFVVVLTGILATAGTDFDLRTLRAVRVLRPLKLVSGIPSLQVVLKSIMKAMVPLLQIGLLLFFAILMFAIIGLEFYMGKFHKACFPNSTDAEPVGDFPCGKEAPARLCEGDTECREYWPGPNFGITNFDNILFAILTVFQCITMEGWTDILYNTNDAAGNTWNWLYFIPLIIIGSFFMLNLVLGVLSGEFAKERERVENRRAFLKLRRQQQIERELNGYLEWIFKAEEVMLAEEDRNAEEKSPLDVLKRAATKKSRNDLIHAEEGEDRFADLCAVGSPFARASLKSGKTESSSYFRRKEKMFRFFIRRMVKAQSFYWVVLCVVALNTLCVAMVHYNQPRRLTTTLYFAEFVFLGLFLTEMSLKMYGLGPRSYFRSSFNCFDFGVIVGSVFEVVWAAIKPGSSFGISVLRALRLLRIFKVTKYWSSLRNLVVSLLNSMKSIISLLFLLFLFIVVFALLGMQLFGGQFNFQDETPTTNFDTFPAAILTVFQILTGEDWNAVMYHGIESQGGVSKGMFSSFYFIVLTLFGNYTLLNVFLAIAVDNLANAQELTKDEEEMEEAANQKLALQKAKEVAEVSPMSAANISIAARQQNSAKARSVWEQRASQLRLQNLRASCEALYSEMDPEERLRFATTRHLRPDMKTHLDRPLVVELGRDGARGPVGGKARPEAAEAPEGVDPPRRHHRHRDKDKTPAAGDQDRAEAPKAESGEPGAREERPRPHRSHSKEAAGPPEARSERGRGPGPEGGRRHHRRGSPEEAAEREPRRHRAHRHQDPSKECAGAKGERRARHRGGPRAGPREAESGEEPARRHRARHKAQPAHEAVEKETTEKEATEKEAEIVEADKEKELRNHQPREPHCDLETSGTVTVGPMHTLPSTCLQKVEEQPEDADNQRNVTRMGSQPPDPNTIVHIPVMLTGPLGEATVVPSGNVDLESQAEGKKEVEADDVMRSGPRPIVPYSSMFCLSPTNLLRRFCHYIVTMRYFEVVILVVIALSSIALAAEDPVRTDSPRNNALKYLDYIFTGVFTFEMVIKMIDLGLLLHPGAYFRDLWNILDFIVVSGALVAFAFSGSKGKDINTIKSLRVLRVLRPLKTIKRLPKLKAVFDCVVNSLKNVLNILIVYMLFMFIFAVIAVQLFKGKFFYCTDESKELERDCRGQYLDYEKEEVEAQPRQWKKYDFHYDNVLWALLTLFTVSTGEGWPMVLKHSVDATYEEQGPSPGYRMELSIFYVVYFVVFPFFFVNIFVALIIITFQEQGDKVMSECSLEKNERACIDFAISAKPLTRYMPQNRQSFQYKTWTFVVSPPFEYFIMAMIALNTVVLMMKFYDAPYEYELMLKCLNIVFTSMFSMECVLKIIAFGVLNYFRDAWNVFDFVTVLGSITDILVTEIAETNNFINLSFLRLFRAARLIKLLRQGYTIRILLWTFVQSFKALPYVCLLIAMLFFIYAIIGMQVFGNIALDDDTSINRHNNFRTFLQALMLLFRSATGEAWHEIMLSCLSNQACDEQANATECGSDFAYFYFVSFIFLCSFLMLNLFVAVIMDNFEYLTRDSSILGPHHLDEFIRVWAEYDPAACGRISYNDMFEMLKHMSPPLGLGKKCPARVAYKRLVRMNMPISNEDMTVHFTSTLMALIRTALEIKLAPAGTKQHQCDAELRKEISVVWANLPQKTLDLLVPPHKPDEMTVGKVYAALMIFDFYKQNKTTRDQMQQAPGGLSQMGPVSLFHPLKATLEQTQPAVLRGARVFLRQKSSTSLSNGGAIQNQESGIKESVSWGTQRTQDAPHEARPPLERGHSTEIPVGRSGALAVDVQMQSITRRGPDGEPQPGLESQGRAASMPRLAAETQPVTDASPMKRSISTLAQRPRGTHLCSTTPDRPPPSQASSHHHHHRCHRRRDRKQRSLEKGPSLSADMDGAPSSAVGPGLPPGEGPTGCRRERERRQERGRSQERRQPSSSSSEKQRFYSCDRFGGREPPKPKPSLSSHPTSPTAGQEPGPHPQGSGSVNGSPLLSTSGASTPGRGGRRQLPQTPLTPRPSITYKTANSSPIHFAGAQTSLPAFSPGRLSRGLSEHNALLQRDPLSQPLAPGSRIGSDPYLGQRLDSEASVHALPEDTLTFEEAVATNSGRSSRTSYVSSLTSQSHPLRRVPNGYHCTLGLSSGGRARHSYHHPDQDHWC

The assay addresses Voltage-dependent N-type calcium channel subunit alpha-1B (Homo sapiens, UniProt Q00975). Kind of assay: Inhibition of N-type Voltage Sensitive Calcium Channel (VSCC) using IMR-32 assay. The class given is functional.
As to `CC(C)CCN(c1ccc(NCc2cnc[nH]2)cc1)C1CCN(C(=O)[C@H](CC(C)C)NC(=O)N2CCCCCC2)CC1`, the IC50 was found to be 120000 nM. To `CC(C)=CCN(c1ccc(CCc2ccccc2)cc1)C1CCN(C(=O)[C@H](CC(C)C)NC(=O)N2CCCCCC2)CC1` belongs 670 nM; to `CC(C)=CCN(c1ccccc1)C1CCN(C(=O)[C@H](CC(C)C)NC(=O)N2CCCCCC2)CC1`, 1000 nM; to `CC(C)CCN(c1ccc(O)cc1)C1CCN(C(=O)[C@H](CC(C)C)NC(=O)N2CCCCCC2)CC1`, 1100 nM. `CC(C)CCN(c1ccc(OCc2ccccc2)cc1)C1CCN(C(=O)[C@H](CC(C)C)NC(=O)N2CCCCCC2)CC1`: the IC50 was 190 nM.

As to `CC(C)=CCN(c1ccc(OCc2ccccc2)cc1)C1CCN(C(=O)[C@H](CC(C)C)NC(=O)N2CCCCCC2)CC1`, the IC50 was 340 nM.
